Laboratory results from US20130231290A1, “METHODS OF DIAGNOSING AND TREATING NEURODEGENERATIVE DISEASES” (DIGNITY HEALTH, priority 2010, published 2013).
pIC50: −log10 of the molar value.

Tests used:
[1] = test system: hippocampal CA1 slices; assay: CCh-induced network synchronization, field potential recordings in hippocampal CA1 slices from WT mice; type: cell-based, mouse; conditions: 50 μM bath-perfusion, mice 6 months old
Text: (§1) Comparing CCh-induced network synchronization in the hippocampal CA1 slices from WT and α7−/− mice (6 months old) using field potential recordings allowed testing of whether α7-nAChRs contribute to network synchronization and seizure susceptibility.

[2] = test system: α7−/− slices; assay: CCh-induced network synchronization, field potential recordings in hippocampal CA1 slices from α7−/− mice; type: cell-based, mouse; conditions: 50 μM, mice 6 months old
Text: as §1

[3] = test system: hippocampal slices prepared from 3×Tg-AD mice; assay: CCh-induced network synchronization, field recordings in CA1 of hippocampal slices from 3×Tg-AD mice; type: cell-based, mouse; conditions: 3×Tg mice (10 month-old) compared to age-matched WT mice
[4] = target: α7β2-nAChRs on MS/DB cholinergic neurons (Rattus norvegicus, UniProt P12390+Q05941); assay: Perforated-patch whole-cell recording of nAChR-mediated (choline/ACh-induced) currents in acutely dissociated MS/DB cholinergic neurons; type: cell-based
α7β2-nAChRs on MS/DB cholinergic neurons (Rattus norvegicus, UniProt P12390+Q05941), sequence (Q05941 23-502): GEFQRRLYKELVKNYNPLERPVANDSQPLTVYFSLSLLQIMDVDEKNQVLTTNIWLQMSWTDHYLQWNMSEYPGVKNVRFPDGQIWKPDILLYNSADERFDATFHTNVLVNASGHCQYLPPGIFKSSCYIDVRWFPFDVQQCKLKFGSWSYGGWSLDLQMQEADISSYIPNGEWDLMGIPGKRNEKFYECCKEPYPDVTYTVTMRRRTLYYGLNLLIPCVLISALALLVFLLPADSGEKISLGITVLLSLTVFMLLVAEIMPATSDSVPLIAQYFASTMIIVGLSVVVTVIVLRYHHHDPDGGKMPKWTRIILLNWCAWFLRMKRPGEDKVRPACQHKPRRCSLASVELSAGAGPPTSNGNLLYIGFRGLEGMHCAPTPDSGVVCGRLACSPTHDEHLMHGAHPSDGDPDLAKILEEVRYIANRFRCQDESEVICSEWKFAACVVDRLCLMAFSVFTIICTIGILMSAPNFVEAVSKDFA
α7β2-nAChRs on MS/DB cholinergic neurons (Rattus norvegicus, UniProt P12390+Q05941), sequence (P12390 25-500): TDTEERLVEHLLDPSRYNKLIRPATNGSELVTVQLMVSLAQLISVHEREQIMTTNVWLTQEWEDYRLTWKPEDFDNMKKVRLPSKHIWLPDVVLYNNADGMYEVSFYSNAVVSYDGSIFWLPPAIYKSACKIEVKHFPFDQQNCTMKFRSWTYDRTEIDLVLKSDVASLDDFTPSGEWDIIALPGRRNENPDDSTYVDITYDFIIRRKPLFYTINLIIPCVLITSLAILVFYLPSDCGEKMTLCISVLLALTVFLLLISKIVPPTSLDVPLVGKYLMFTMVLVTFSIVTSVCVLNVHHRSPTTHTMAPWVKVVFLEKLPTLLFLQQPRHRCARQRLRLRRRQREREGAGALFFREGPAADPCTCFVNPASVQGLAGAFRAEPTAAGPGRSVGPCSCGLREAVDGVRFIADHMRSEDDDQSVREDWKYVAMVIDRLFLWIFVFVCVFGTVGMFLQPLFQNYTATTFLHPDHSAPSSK

[5] = target: T1, homomeric α7-nAChRs on VTA DAergic neurons (Rattus norvegicus, UniProt Q05941); type: cell-based
T1 construct: native nAChR responses in rat MS/DB or VTA neurons; endogenous in cells; host or cells: acutely dissociated VTA dopaminergic neurons of Wistar rats
T1 sequence (Q05941 23-502): as the sequence (Q05941 23-502) above

[6] = target: T2, heteromeric α7β2-nAChRs (Rattus norvegicus, UniProt P12390+Q05941); type: cell-based
T2 construct: expressed in transfected cells; host or cells: Xenopus laevis oocytes injected with cRNA (pGEMHE vector)
T2 sequence (Q05941 23-502): as above
T2 sequence (P12390 25-500): as the sequence (P12390 25-500) above

[7] = target: T3, α7-containing-nAChRs in nAChR β2 subunit knockout mice (Mus musculus, UniProt P49582); type: cell-based
T3 construct: MS/DB neurons derived from nAChR β2 subunit knock-out mice; endogenous in cells; host or cells: acutely dissociated MS/DB neurons of nAChR β2 knockout mice (C57/Bl6 background)
T3 sequence (P49582 23-502): as the sequence (Q05941 23-502) above, with A402T counted along it

[8] = test system: cultured hippocampal pyramidal neurons; assay: Patch-clamp recording of neuronal excitability in cultured hippocampal neurons after chronic Aβ; type: cell-based, mouse; conditions: for neuronal excitability (spontaneous bursting AP firing, input-output curve): chronic exposure, treated vs untreated neurons
[9] = test system: MS/DB neurons; assay: Current-clamp recording of spontaneous action potential firing in dissociated MS/DB neurons; type: cell-based, rat; conditions: 1 μM
[10] = target: T4, α7β2-nAChRs on MS/DB cholinergic neurons (Mus musculus, UniProt P49582+Q9ERK7); assay: Choline-induced currents in MS/DB neurons from wild-type mice; type: cell-based; conditions: 1 nM
T4 construct: Compared to MS/DB neurons from WT mice; endogenous in cells; host or cells: acutely dissociated MS/DB neurons of wild-type C57/Bl6 mice
T4 sequence (P49582 23-502): as the sequence (Q05941 23-502) above, with A402T counted along it
T4 sequence (Q9ERK7 26-501): as the sequence (P12390 25-500) above, with A350T, V371M, R379Q, T383A, P387L, V391M, V449I, P468S counted along it

[11] = test system: GABAA receptors; assay: GABA-induced currents in rat MS/DB cholinergic neurons; type: cell-based; conditions: 1 nM peptide; 0.1 mM GABA
[12] = test system: ionotropic glutamate receptors; assay: Glutamate-induced currents in rat MS/DB cholinergic neurons; type: cell-based; conditions: 1 nM peptide; 1 mM glutamate
[13] = test system: cultured mouse hippocampal neurons; assay: Aβ-induced degeneration of cultured hippocampal neurons (DAPI staining, LDH levels); type: cell-based
[14] = test system: α7−/− hippocampal neurons; assay: Aβ toxicity in α7−/− hippocampal neurons; type: cell-based, mouse; conditions: α7−/− compared to WT hippocampal neurons
[15] = test system: neurons from α7−/− mice; assay: Neuronal excitability after chronic Aβ in cultured hippocampal neurons from α7−/− mice; type: cell-based, mouse; conditions: chronic exposure
Text: To further investigate whether pharmacological block of α7-nAChR eliminated the expression of neuronal hyperexcitation after chronic Aβ exposure. […] Comparing cultured neurons from WT and α7−/− mice could further establish if α7-nAChRs play a role in the induction of Aβ-induced neuronal hyperexcitation by comparing cultured neurons from WT and α7−/− mice.

[16] = chronic Aβ, neurons from WT mice

## C[N+](C)(C)CCOC(N)=O [CCh, carbachol]
[1]
  induced network synchronization: induced two types of network synchronizations
[2]
  induced network synchronization: failed to induce θ-oscillations
[3]
  induced network synchronization: much stronger network synchronization

## CO[C@H]1CC=C2CCN3CCC4=C(CC(=O)OC4)[C@]23C1 [DHβE, dihydro-β-erythroidine]
[4]; 10 mM choline-induced currents, MS/DB neurons, n=8
  Hill coefficient of concentration-inhibition curve: 0.9
[4]; 10 mM choline, MS/DB neurons, n=8, read-out: IC50 for inhibition of choline-induced currents
  pIC50: 6.77
[4]; printed as less potent in MS/BD than in VTA neurons
  potency difference as inhibitor of choline-induced current, MS/DB vs VTA neurons: ~500 fold
[5]; 10 mM choline-induced currents, VTA neurons
  Hill coefficient of concentration-inhibition curve: 0.3
[5]; 10 mM choline, VTA neurons, n=7, read-out: IC50 for inhibition of choline-induced currents
  pIC50: < 4.00
[6]; 10 mM choline-induced currents in oocytes
  sensitivity to functional blockade, α7β2-nAChR compared with homomeric α7-nAChR: more sensitive
[7]; MS/DB neurons from β2 knockouts compared with wild-type
  antagonist sensitivity of choline-induced currents: lower sensitivity

## CCN1C[C@]2(COC(=O)c3ccccc3N3C(=O)C[C@H](C)C3=O)CC[C@H](OC)[C@@]34[C@@H]5C[C@H]6[C@H](OC)[C@@H]5[C@](O)(C[C@@H]6OC)[C@@](O)([C@@H](OC)[C@H]23)[C@@H]14 [MLA, methyllycaconitine]
[8]; following a depolarizing pulse, MLA pretreated for 2 min, Aβ oligomers for 9 days
  effect on enhanced neuronal excitation after chronic Aβ exposure: reversibly eliminated

## CNCC/C=C/c1cccnc1 [RJR-2403]
[4]
  whole-cell current response to agonist: insensitive
[5]
  whole-cell current response to agonist: mimicked

## C[C@@H]1O[C@H](C[N+](C)(C)C)C[C@H]1O [muscarine]
[9]
  sensitivity of spontaneous action potential firing: insensitive

## Aβ1-42: amyloid beta peptides at positions 1-42 of the amyloid precursor protein (APP), purchased from rPeptide
[4]
  effect on ACh-induced current: evident
[5]
  effect on choline-induced currents: not sensitive
[6]
  sensitivity of choline-induced currents to peptide: demonstrated sensitivity
[7]
  suppression of choline-induced currents: failed to suppress
[10]
  suppression of choline-induced currents: did suppress
[11]
  inhibition of GABA-induced currents: insensitive
[12]
  inhibition of glutamate-induced currents: insensitive
[13]; 100 nM for 4, 7 and 10 days, primary cultured hippocampal neurons
  cytotoxicity by LDH levels: increased LDH levels
[13]; 100 nM over several days
  loss of cultured hippocampal neurons (DAPI staining): cell loss in an exposure-time-dependent manner
[14]
  toxic effects on hippocampal neurons: did not show toxic effects
[8]; [16]
  sEPSC amplitude: but not amplitude
  sEPSC frequency: enhances sEPSC frequency
[8]
  neuronal excitability (spontaneous bursting AP firing, input-output curve): shifted leftwards
[15]
  induction of neuronal hyperexcitation: failed to evoke neuronal hyperexcitation

## fibrillar Aβ: Aβ1-42 stock incubated at 37° C. for 48 h at pH 6.0, predominantly fibrillar form
[4]
  suppression of choline-induced responses by peptide form: weaker inhibitory effect
[8]; 10 days treatment, n=11, untreated −62.8±3.3 mV
  mean resting membrane potential of treated neurons: −53.4±2.6 mV
[8]
  neuronal excitability (spontaneous bursting AP firing, input-output curve): spontaneous bursting AP firing was observed

## monomeric Aβ1-42: Aβ1-42 reconstituted in DMSO, predominant monomeric form
[4]
  suppression of choline-induced responses by peptide form: failed to suppress

## oligomeric Aβ1-42: Aβ1-42 reconstituted in distilled water, predominantly oligomeric form
[4]
  suppression of choline-induced responses by peptide form: greatest suppression
